Earlier results, collected in US6306900A, “Enteric coated pharmaceutical compositions” (priority 1996, dated 2001).

Experiments:
[1] = W. A. Lee et al
[2] = patients; origin not known
[3] = in words

| SMILES | bioavailability [1] [%] | side-effects [2] | known activity [3] |
| --- | --- | --- | --- |
| COc1c(C)c2c(c(O)c1C/C=C(\C)CCC(=O)OCCN1CCOCC1)C(=O)OC2 [MMF, mycophenolate mofetil] | 100 | gastro-intestinal side effects | – |
| COc1c(C)c2c(c(O)c1C/C=C(\C)CCC(=O)O)C(=O)OC2 [MPA, Mycophenolic acid] | 43 | – | anti-tumor, anti-viral, immunosuppressive, anti-psoriatic, and anti-inflammatory activity |
